{"source": "paper PMC5583591", "about": "“The N-terminal Region of Nisin Is Important for the BceAB-Type ABC Transporter NsrFP from Streptococcus agalactiae COH1” (Frontiers in Microbiology, 2017)", "format_in_all_cases": "cell-based, Lactococcus lactis", "key": {"NZ9000NsrFH202AP": {"tested_on": "NZ9000NsrFH202AP", "assay": "Growth inhibition (IC50), strain expressing ATP-hydrolysis-deficient NsrFH202AP", "conditions": "IC50 against NZ9000NsrFH202AP divided by IC50 against NZ9000Cm", "excerpt": "(§1) The nsrfp gene from S. agalactiae COH1 was amplified from the chromosomal DNA using two primers (NsrFP_for 5′-[…]-3′ and NsrFP_rev 5′-[…]-3) and ligated into pIL-SV (E. coli–L. lactis shuttle vector) ([Alkhatib et al., 2014b]). The point mutation NsrFH202A was introduced by a standard mutagenesis protocol using the following primers: forward: 5′-[…]-3′; reverse: 5′-[…]-3′. The resulting plasmid was verified by sequencing and transformed into the L. lactis strain NZ9000 for expression ([Holo and Nes, 1989]) and the corresponding strains were termed NZ9000NsrFP and NZ9000NsrFH202AP. An empty vector pIL-SVCm was also transformed into the NZ9000 strain and was used as a control (that excludes any possible effect of induction of the plasmid), and this strain was called NZ9000Cm. The expression of the nsrfp gene is regulated by the TCS NisR/NisK present in the NZ9000 strain genome.\nCells from the different expressing strains were grown overnight in GM17 supplemented with 5 μg/ml chloramphenicol in presence of 1 ng/ml nisin. The diluted cells (final OD584 was 0.1) were incubated with a serial dilution of nisin in a 96-well plate. The total volume in each well was 200 μl, consisting of 50 μl nisin and 150 μl GM17 containing the corresponding L. lactis strain.\n(§2) The plate was incubated at 30°C. After 5 h, the optical density was measured at 584 nm via 96-well plate reader BMG. The normalized optical density was plotted against the logarithm of the nisin concentration in order to calculate the IC50 of nisin and the data was evaluated using the following equation (Eq. 1):\ny=ODmin+ODmax−ODmin/1+10^(log(IC50)−x) ×p\nThe ODmax value describes the normalized optical density value where no nisin was added, while the ODmin value corresponds to the normalized optical density of the cells grown in the highest nisin concentrations. The y represents the resulted normalized optical density value and x represents the logarithmic of the nisin concentration added. The IC50 value is the concentration of nisin where the growth of the L. lactis strain is inhibited by 50% ([Abts et al., 2011]).\nWe determined the IC50 value of nisin against the NZ9000Cm sensitive strain as well as the strain NZ9000NsrFP and NZ9000NsrFH202AP. By dividing these two values the fold of resistance is obtained. […] Dividing these two values results in a fold of resistance of 16.7."}, "NZ9000NsrFP": {"tested_on": "NZ9000NsrFP", "assay": "Growth inhibition (IC50), strain expressing NsrFP", "conditions": "IC50 against NZ9000NsrFP divided by IC50 against NZ9000Cm", "excerpt": "as §1, with “genome. […]” for “genome.”\nas §2, with “1): […]” for “1):”\nWe determined the IC50 value of nisin against the NZ9000Cm sensitive strain as well as the strain NZ9000NsrFP and NZ9000NsrFH202AP. […]"}, "NZ9000Cm": {"tested_on": "NZ9000Cm", "assay": "Growth inhibition (IC50), nisin-sensitive control strain with empty vector", "conditions": "product of NSR cleavage (last six amino acids cleaved off)", "excerpt": "as §1\nCells from the different expressing strains were grown overnight in GM17 supplemented with 5 μg/ml chloramphenicol in presence of 1 ng/ml nisin. […]\nas §2, with “1): […]” for “1):”"}}}
{"smiles": "C/C=C(\\NC(=O)[C@H](CCCCN)NC(=O)[C@H](C)NC(=O)[C@@H]1CS[C@@H](C)[C@@H](NC(=O)[C@@H]2CSC[C@@H](NC(=O)[C@H](C)NC(=O)[C@@H](N)[C@@H](C)CC)C(=O)N[C@@H](CCCCN)C(=O)N[C@@H](Cc3ccccc3)C(=O)N[C@@H](CC(C)C)C(=O)N2)C(=O)N2CCC[C@H]2C(=O)NCC(=O)N1)C(=O)NCC(=O)N[C@@H]1CSC[C@@H]2NC(=O)[C@H](Cc3ccc(O)cc3)NC(=O)[C@@H](CS/C=C\\NC2=O)NC(=O)[C@H](CC(N)=O)NC(=O)[C@H](Cc2ccccc2)NC1=O", "note": "[Gallidermin]", "values": [{"measurement": "Fold of resistance NZ9000NsrFH202AP", "setting": "NZ9000NsrFH202AP", "result": 0.9, "unit": "fold"}, {"measurement": "Fold of resistance NZ9000NsrFP", "setting": "NZ9000NsrFP", "result": 12.5, "unit": "fold"}]}
{"smiles": "C=C1NC(=O)[C@H]([C@@H](C)CC)NC(=O)[C@H](NC(=O)/C(=C/C)NC(=O)[C@@H](N)[C@@H](C)CC)CSC[C@@H](C(=O)N[C@H]2C(=O)N3CCC[C@H]3C(=O)NCC(=O)N[C@H](C(=O)N[C@@H](CCCCN)C(=O)N[C@H]3C(=O)NCC(=O)N[C@@H](C)C(=O)N[C@@H](CC(C)C)C(=O)N[C@@H](CCSC)C(=O)NCC(=O)N[C@H](C(=O)N[C@@H](CC(N)=O)C(=O)N[C@@H](CCSC)C(=O)N[C@@H](CCCCN)C(=O)O)CS[C@H]3C)CS[C@H]2C)NC(=O)[C@H](CC(C)C)NC1=O", "note": "[Nisin1-22]", "values": [{"measurement": "Fold of resistance NZ9000NsrFH202AP", "setting": "NZ9000NsrFH202AP", "result": 0.7, "unit": "fold"}]}
{"smiles": "C=C1NC(=O)[C@H]([C@@H](C)CC)NC(=O)[C@H](NC(=O)/C(=C/C)NC(=O)[C@@H](N)[C@@H](C)CC)CSC[C@@H](C(=O)N[C@H]2C(=O)N3CCC[C@H]3C(=O)NCC(=O)N[C@H](C(=O)N[C@@H](CCCCN)C(=O)N[C@H]3C(=O)NCC(=O)N[C@@H](C)C(=O)N[C@@H](CC(C)C)C(=O)N[C@@H](CCSC)C(=O)NCC(=O)N[C@H](C(=O)N[C@@H](CC(N)=O)C(=O)N[C@@H](CCSC)C(=O)N[C@@H](CCCCN)C(=O)N[C@H]4C(=O)N[C@@H](C)C(=O)N[C@H]5C(=O)N[C@@H](CS[C@H]4C)C(=O)N[C@@H](Cc4c[nH]cn4)C(=O)N[C@H](C(=O)O)CS[C@H]5C)CS[C@H]3C)CS[C@H]2C)NC(=O)[C@H](CC(C)C)NC1=O", "note": "[Nisin1-28]", "values": [{"measurement": "Fold lower activity compared with nisin", "setting": "NZ9000Cm", "result": 32, "unit": "fold"}, {"measurement": "Fold of resistance NZ9000NsrFH202AP", "setting": "NZ9000NsrFH202AP", "result": 0.4, "unit": "fold"}]}
{"smiles": "C=C(NC(=O)[C@@H](NC(=O)[C@H](CCCCN)NC(=O)[C@@H](NC(=O)[C@H](CO)NC(=O)[C@@H]1CS[C@@H](C)[C@H]2NC(=O)[C@H](C)NC(=O)[C@H](NC(=O)[C@H](CCCCN)NC(=O)[C@H](Cc3ccc(O)cc3)NC(=O)[C@H](CC(N)=O)NC(=O)[C@@H]3CS[C@@H](C)[C@@H](NC(=O)[C@H](CCCCN)NC(=O)[C@@H]4CS[C@@H](C)[C@@H](NC(=O)[C@@H]5CSC[C@@H](NC(=O)/C(=C/C)NC(=O)[C@@H](N)Cc6ccccc6)C(=O)N[C@@H]([C@@H](C)CC)C(=O)NC(=C)C(=O)N[C@@H](CCSC)C(=O)N5)C(=O)N5CCC[C@H]5C(=O)NCC(=O)N4)C(=O)NCC(=O)N[C@@H](C)C(=O)N[C@@H](CC(C)C)C(=O)N[C@@H](CCSC)C(=O)N/C(=C\\C)C(=O)N3)[C@H](C)SC[C@H](NC2=O)C(=O)N[C@@H](Cc2c[nH]cn2)C(=O)N1)[C@@H](C)CC)C(C)C)C(=O)N[C@@H](CCCCN)C(=O)O", "note": "[Nisin H]", "values": [{"measurement": "Fold of resistance NZ9000NsrFH202AP", "setting": "NZ9000NsrFH202AP", "result": 1.1, "unit": "fold"}, {"measurement": "Fold of resistance NZ9000NsrFP", "setting": "NZ9000NsrFP", "result": 12.3, "unit": "fold"}]}
